Here are results for nine molecules from publication PMC7084598, “Design, Synthesis, and Biological Evaluation of Two Series of Novel A-Ring Fused Steroidal Pyrazines as Potential Anticancer Agents” (International Journal of Molecular Sciences, 2020).

The term melting point denotes the temperature of the solid-liquid transition. Broadly, the IC50 is the concentration at which inhibition is half-maximal. Lower therefore signals higher potency. As usually defined, the GI50 is the concentration giving 50% growth inhibition.

The test system of one series is P338. Also noted: method as in PMID 14695204, PMID 26042639. As to conditions: cited from earlier work.
For series [1], the system named is HepG2 (liver hepatocellular carcinoma). Kind of series: CCK-8 antiproliferative assay, HepG2. It is filed as cell-based. As to conditions: Homo sapiens, 48 h, CCK8, mean of three independent experiments, NA = no activity, read-out: Inhibitory Ratio (Mean% ± SD%) HepG2. As for the experimental part: (§1) All the thirty-six target derivatives (5a–5f, 10a–10o, and 12a–12o) were screened for antiproliferative activities against three human cancer cell lines (MCF-7, PC-3, and HepG2) and cytotoxicity on a normal human cell (THLE-2) at the concentration of 20 μM by using the CCK8 assay.
(§2) Thirty-six novel steroidal A-ring fused pyrazine hybrids were evaluated by Cell Counting Kit-8 (CCK-8) assays, to evaluate their in vitro antiproliferative activities on three human cancer cell lines and one normal cell line: MCF-7 (breast carcinoma), PC-3 (prostate carcinoma), HepG2 (liver hepatocellular carcinoma), and THLE-2 ([…]), with 5-fluorouracil as the positive control.
(§3) Cells (3 × 10^3 cells per well) seeded into 96-well plates (Costar, Shanghai, China) were incubated with Ham’s F-12K containing various concentrations of steroidal pyrazines (5a–5f, 10a–10o, and 12a–12o) for 48 h at 37 °C and 5% COThen, 10 μL of CCK-8 reagent (Beyotime, Shanghai, China) dissolved in PBS (Phosphate buffered saline) was added per well, and continuously incubated at 37 °C for 1 h. Finally, the absorbance of samples taken from each well was measured on a microplate reader at 450 nm. The antiproliferative activities were expressed as inhibitory activity and IC50 values calculated using GraphPad Software 5.0 (GraphPad Software, San Diego, CA, USA), which were the mean values of three independent tests and are shown in Table 1 and Table 2, respectively. The formula used for cell inhibitory rates was (1 - sample absorption/vehicle absorption) × 100%.
For orientation: Formazan colour is commonly taken as a measure of viable cells.

Series [2] has as its system PC-3 (prostate carcinoma). The experiment in a line: CCK-8 antiproliferative assay, PC-3. In kind it is cell-based, human. As to conditions: for inhibition at 20 µM: 48 h, CCK8, mean of three independent experiments, NA = no activity, read-out: Inhibitory Ratio (Mean% ± SD%) PC-3. As for the experimental part: as §1, §2, §3
For a further series, the system named is MCF-7 (breast carcinoma). The experiment in a line: CCK-8 antiproliferative assay, MCF-7. In kind it is cell-based. The settings on record: Homo sapiens, MCF7, 48 h, CCK8, mean of three independent experiments, NA = no activity, read-out: Inhibitory Ratio (Mean% ± SD%) MCF-7. As for the experimental part:
as §1, §2, §3

The subject of series [3] is PC-3 cells. Kind of series: Giemsa staining for morphological features of apoptosis. As to conditions: 1.0 and 4.0 μM, 48 h. In kind it is cell-based, human. As for the experimental part:
After being treated with 12n at different concentrations (1.0 and 4.0 μM), the cells were stained with Giemsa stain. […] Other morphological changes, such as the loss of volume and deformation of a regular appearance, were also found.
Giemsa stain was used to assess the morphological changes of PC-3 cells, according to the standard Giemsa procedure established by the supplier (Solarbio, Beijng, China). Briefly, PC-3 cells were plated at 3 × 10^3 cells/well into a 96-well plates. PC-3 cells after treatment with 12n for 48 h were fixed with methanol (75%) for 10 min at room temperature. Then, the cells were stained with Giemsa (diluted with phosphate buffer), observed, and photographed under the microscope at 200 × (Olympus Corporation, Tokyo, Japan ).

Series [4] relates to PC-3 cells. The experiment in a line: Cell cycle assay, PI single staining, flow cytometry. It is filed as cell-based, human. The settings on record: for Percentage of Cell Cycles (%) G1 / Percentage of Cell Cycles (%) S / Percentage of Cell Cycles (%) G2/M: 48 h; for Percentage of Cell Cycles (%) G2/M: control 15.69%. As for the experimental part:
To further clarify the effects of A-ring fused steroidal pyrazines on cell growth, the cell cycle distribution of PC-3 cells was investigated through treatment with compound 12n at concentration gradients for 48 h (Figure 5 and Table 5).
The cell cycle was examined by PI single staining (Beyotime, Shanghai, China), as previously described. […] The samples were analyzed using flow cytometry for DNA content (CytoFLEX, California, United States).
Background: A flow cytometer gives signals particle by particle.

Series [5] relates to THLE-2 (normal human cells). Kind of series: CCK-8 cytotoxicity on normal cells, THLE-2. As to conditions: for inhibition at 20 µM: 48 h, CCK8, NA = no activity, read-out: Inhibitory Ratio (Mean% ± SD%) THLE-2. In kind it is cell-based. As for the experimental part:
as §1, §2, §3

For series [6], the system named is PC-3 cells. The experiment in a line: Cell apoptosis assay, Annexin V-FITC/PI dual staining, flow cytometry. In kind it is cell-based, human. The settings on record: for Percentage of Cell Apoptosis (%) Normal Living Cell: 48 h (Q1-LL); for Percentage of Cell Apoptosis (%) Early Apoptosis: 48 h (Q1-LR); for Percentage of Cell Apoptosis (%) Necrosis: 48 h (Q1-UL); for Percentage of Cell Apoptosis (%) Late Apoptosis: 48 h (Q1-UR); for apoptosis ratio (early and late apoptotic ratios): 48 h, blank control 5.77%. As for the experimental part:
To clarify the effect of steroidal pyrazines on the induction of apoptosis in PC-3 cells, a flow cytometry assay with Annexin-V-FITC/PI double staining was implemented.
The cell apoptosis was evaluated with Annexin V-FITC/PI dual staining (Beyotime, Shanghai, China), as previously described. PC-3 cells (1 × 10^6 cells per well) seeded into 6-well plates (Costar, Shanghai, China) were incubated with Ham’s F-12K containing various concentrations (0.2, 1.0, and 5.0 μM) of compound 12n for 48 h. The biological samples were analyzed using flow cytometry (CytoFLEX, CA, USA).

In the next series the test system is NCI-H460. Further details: method as in PMID 14695204, PMID 26042639. As to conditions: cited from earlier work.
A further series concerns MCF-7. Also noted: method as in PMID 14695204, PMID 26042639. The settings on record: cited from earlier work.
The next series deals with DU-145. Also noted: method as in PMID 14695204, PMID 26042639. As to conditions: cited from earlier work.

For the molecule Ritterazine B, the “ED50 (nM) for P338” value with P338 is 0.17 nM.

On to `CC1(C)C2=CCC3C(CC[C@@]4(C)C3CC[C@@H]4C(=O)O)[C@@]2(C)Cc2nccnc21` (stereo partly drawn) [Compound 5a], for which the melting point was in the range of 270 to 292 °C. In addition, the inhibition at 20 µM in series [1] was 17.9 ± 1.16%. In series [2] (Homo sapiens), the inhibition at 20 µM was 25.1 ± 2.64%. The inhibition at 20 µM in the series on MCF-7 (breast carcinoma) was determined as 3.09 ± 1.05%.

Regarding `CC(O)C1CCC2C3CC=C4C(C)(C)c5nc(C(=O)NCCc6ccccc6)cnc5CC4(C)C3CCC12C` (stereo not drawn) [Compound 12n], the “Morphological changes of PC-3 cells (Giemsa stain)” value in the series with PC-3 cells [3] is “could cause the morphological change of PC-3 cells in a dose-dependent manner”. The “Percentage of Cell Cycles (%) G1” value with PC-3 cells [4] (PC-3, 0.2 μM) is 46.65%; in the series with PC-3 cells [4] (PC-3, 1.0 μM) it was 23.03%; in the series with PC-3 cells [4] (PC-3, 5.0 μM) it was 55.73%. In addition, the “Percentage of Cell Cycles (%) S” value worked out at 37.26% in the series on PC-3 cells [4] (PC-3, 0.2 μM); 30.78% in the series on PC-3 cells [4] (PC-3, 1.0 μM); 0.00% in the series with PC-3 cells [4] (PC-3, 5.0 μM). For the same molecule, the “Percentage of Cell Cycles (%) G2/M” value was determined as 16.09% with PC-3 cells [4] (PC-3, 0.2 μM); 46.19% in the series with PC-3 cells [4] (PC-3, 1.0 μM); 44.27% in the series on PC-3 cells [4] (PC-3, 5.0 μM). The “percentage of cells in the G2/M phase” value with PC-3 cells [4] (PC-3, 5.0 μM) turned out to be 44.27%. The inhibition at 20 µM in [5] is 19.3 ± 1.81%; in series [1] it was 55.4 ± 1%; in series [2] (Homo sapiens), over 60%; in the series with MCF-7 (breast carcinoma), 40.8 ± 1.72%. For the same molecule, the IC50 in [5] (CCK-8, 48 h) came to 26700 nM; in [2] (Homo sapiens, CCK-8, 48 h, triplicate) it was 930 ± 20 nM. For the same molecule, the “SI: Selectivity index = (IC50 of THLE-2)/(IC50 of PC-3)” value in series [2] (THLE-2 vs PC-3) is recorded as 28.71. The “Percentage of Cell Apoptosis (%) Normal Living Cell” value with PC-3 cells [6] (PC-3, 0.2 μM) is reported as 89.20%; in the series with PC-3 cells [6] (PC-3, 1.0 μM), 73.17%; in the series on PC-3 cells [6] (PC-3, 5.0 μM) it was 54.13%. The “Percentage of Cell Apoptosis (%) Early Apoptosis” value in the series with PC-3 cells [6] (PC-3, 0.2 μM) is 0.76%; in the series on PC-3 cells [6] (PC-3, 1.0 μM), 4.55%; with PC-3 cells [6] (PC-3, 5.0 μM) it was 3.64%. The “Percentage of Cell Apoptosis (%) Necrosis” value in the series with PC-3 cells [6] (PC-3, 0.2 μM) was 2.15%; in the series with PC-3 cells [6] (PC-3, 1.0 μM), 3.21%; in the series on PC-3 cells [6] (PC-3, 5.0 μM), 6.30%. Further, the “Percentage of Cell Apoptosis (%) Late Apoptosis” value with PC-3 cells [6] (PC-3, 0.2 μM) was determined as 7.90%; in the series with PC-3 cells [6] (PC-3, 1.0 μM), 19.07%; with PC-3 cells [6] (PC-3, 5.0 μM), 35.93%. For the same molecule, the “apoptosis ratio (early and late apoptotic ratios)” value with PC-3 cells [6] (PC-3, 0.2 μM) turned out to be 8.66%; in the series with PC-3 cells [6] (PC-3, 1.0 μM) it was 23.62%; in the series with PC-3 cells [6] (PC-3, 5.0 μM), 39.57%.

In turn, `CC(O)C1CCC2C3CC=C4C(C)(C)c5nccnc5CC4(C)C3CCC12C` (stereo not drawn) [Compound 10a] showed a melting point of 150 to 152 °C. In addition, the inhibition at 20 µM in series [1] was determined as 6.2 ± 5.25%. Moreover, the inhibition at 20 µM in the series on MCF-7 (breast carcinoma) came out at 4.99 ± 3.09%.

On to `COc1ccc(NC(=O)c2cnc3c(n2)C(C)(C)C2=CCC4C(CCC5(C)C(C(C)O)CCC45)C2(C)C3)cc1` (stereo not drawn) [Compound 12m], for which the inhibition at 20 µM in series [5] is 5.68 ± 1.9%; in [1], 20.3 ± 3.6%; in [2] (Homo sapiens), 30 to 60%; with MCF-7 (breast carcinoma), 20 ± 2.33%.

Regarding `CC(O)C1CCC2C3CC=C4C(C)(C)c5nc(C(=O)Nc6ccccc6F)cnc5CC4(C)C3CCC12C` (stereo not drawn) [Compound 12e], the inhibition at 20 µM worked out at 14 ± 1.47% in series [5], 17.6 ± 3.19% in series [1], 47 ± 3.47% in series [2] (Homo sapiens) and 3.28 ± 1.9% in the series on MCF-7 (breast carcinoma).

`COc1ccccc1NC(=O)c1cnc2c(n1)C(C)(C)C1=CCC3C(CCC4(C)C(C(C)O)CCC34)C1(C)C2` (stereo not drawn) [Compound 12k]: the inhibition at 20 µM in series [5] stood at 4.71 ± 1.25%; in [1], 12.9 ± 0.43%; in [2] (Homo sapiens), 32.9 ± 1.19%; in the series on MCF-7 (breast carcinoma), 17.7 ± 1.01%.

For `C[C@@H]1[C@]2(O[C@H]3C=C4[C@@H]5CC[C@H]6Cc7nc8c(nc7C[C@]6(C)[C@H]5C[C@@H](O)[C@]4(C)[C@]31O)C[C@@H]1CC[C@H]3C4=CC[C@@H]5[C@H](C)[C@@]6(OC[C@]45C(=O)C[C@@H]3[C@@]1(C)C8)OC(C)(C)C[C@H]6O)O[C@](C)(CO)C[C@H]2O` [Cephalostatin 1], the values for the GI50 in the series with NCI-H460, in the series with MCF-7 and with DU-145 were 0.044 nM, 0.099 nM and 0.11 nM, respectively.

Take `COc1ccc2nc3c(nc2c1)C(C)(C)C1=CCC2C(CCC4(C)C(C(C)O)CCC24)C1(C)C3` (stereo not drawn) [Compound 10l]: the inhibition at 20 µM was 22.2 ± 2.72% in [5], 33.3 ± 1.13% in series [1], 30 to 60% in [2] (Homo sapiens) and 41.6 ± 1.28% with MCF-7 (breast carcinoma).
